tested on: not listed separately; experiment: Solubility of the compound in water; assay type: physicochemical; conditions: buffer

| solubility [mM] | SMILES |
| --- | --- |
| 1.46 | Cc1c2cc(NC(=O)NCCNC(=O)Nc3ccc4c(c3)c(C)[n+](C)c3ccccc43)ccc2c2ccccc2[n+]1C.O=S(=O)([O-])O.O=S(=O)([O-])O |

tested on: Calf thymus DNA; experiment: Binding affinity to calf thymus DNA in citric acid buffer at pH 5 by fluorescence titration assay; assay type: nucleic-acid assay; conditions: Bos taurus

| log Ks | SMILES |
| --- | --- |
| 6.4 | Cc1c2cc(NC(=O)NCCNC(=O)Nc3ccc4c(c3)c(C)[n+](C)c3ccccc43)ccc2c2ccccc2[n+]1C.O=S(=O)([O-])O.O=S(=O)([O-])O |

tested on: Nucleic Acid; experiment: Binding affinity to poly dA-poly dT RNA in citric acid buffer at pH 5 by fluorescence titration assay relative to control; assay type: nucleic-acid assay; conditions: not given

| RFU | SMILES |
| --- | --- |
| 56 | Cc1c2cc(NC(=O)NCCNC(=O)Nc3ccc4c(c3)c(C)[n+](C)c3ccccc43)ccc2c2ccccc2[n+]1C.O=S(=O)([O-])O.O=S(=O)([O-])O |

tested on: Nucleic Acid; experiment: Binding affinity to poly dA-poly dT RNA in citric acid buffer at pH 5 by fluorescence titration assay; assay type: nucleic-acid assay; conditions: not given

| log Ks | SMILES |
| --- | --- |
| 6.1 | Cc1c2cc(NC(=O)NCCNC(=O)Nc3ccc4c(c3)c(C)[n+](C)c3ccccc43)ccc2c2ccccc2[n+]1C.O=S(=O)([O-])O.O=S(=O)([O-])O |

tested on: Nucleic Acid; experiment: Binding affinity to poly A-poly U RNA in citric acid buffer at pH 5 by fluorescence titration assay relative to control; assay type: nucleic-acid assay; conditions: not given

| RFU | SMILES |
| --- | --- |
| 2.3 | Cc1c2cc(NC(=O)NCCNC(=O)Nc3ccc4c(c3)c(C)[n+](C)c3ccccc43)ccc2c2ccccc2[n+]1C.O=S(=O)([O-])O.O=S(=O)([O-])O |

tested on: Nucleic Acid; experiment: Binding affinity to poly A-poly U RNA in citric acid buffer at pH 5 by fluorescence titration assay; assay type: nucleic-acid assay; conditions: not given

| log Ks | SMILES |
| --- | --- |
| 6.6 | Cc1c2cc(NC(=O)NCCNC(=O)Nc3ccc4c(c3)c(C)[n+](C)c3ccccc43)ccc2c2ccccc2[n+]1C.O=S(=O)([O-])O.O=S(=O)([O-])O |

tested on: Nucleic Acid; experiment: Binding affinity to poly G-poly C RNA in citric acid buffer at pH 5 by fluorescence titration assay relative to control; assay type: nucleic-acid assay; conditions: not given

| RFU | SMILES |
| --- | --- |
| 0 | Cc1c2cc(NC(=O)NCCNC(=O)Nc3ccc4c(c3)c(C)[n+](C)c3ccccc43)ccc2c2ccccc2[n+]1C.O=S(=O)([O-])O.O=S(=O)([O-])O |

tested on: Nucleic Acid; experiment: Binding affinity to poly G-poly C RNA in citric acid buffer at pH 5 by fluorescence titration assay; assay type: nucleic-acid assay; conditions: not given

| log Ks | SMILES |
| --- | --- |
| 5.5 | Cc1c2cc(NC(=O)NCCNC(=O)Nc3ccc4c(c3)c(C)[n+](C)c3ccccc43)ccc2c2ccccc2[n+]1C.O=S(=O)([O-])O.O=S(=O)([O-])O |

tested on: Calf thymus DNA; experiment: Binding affinity to calf thymus DNA in sodium cacodylate buffer at pH 7 by fluorescence titration assay relative to control; assay type: nucleic-acid assay; conditions: Bos taurus

| RFU | SMILES |
| --- | --- |
| 3 | Cc1c2cc(NC(=O)NCCNC(=O)Nc3ccc4c(c3)c(C)[n+](C)c3ccccc43)ccc2c2ccccc2[n+]1C.O=S(=O)([O-])O.O=S(=O)([O-])O |

tested on: Calf thymus DNA; experiment: Binding affinity to calf thymus DNA in sodium cacodylate buffer at pH 7 by fluorescence titration assay; assay type: nucleic-acid assay; conditions: Bos taurus

| log Ks | SMILES |
| --- | --- |
| 6.1 | Cc1c2cc(NC(=O)NCCNC(=O)Nc3ccc4c(c3)c(C)[n+](C)c3ccccc43)ccc2c2ccccc2[n+]1C.O=S(=O)([O-])O.O=S(=O)([O-])O |

tested on: Nucleic Acid; experiment: Binding affinity to poly dA-poly dT RNA in sodium cacodylate buffer at pH 7 by fluorescence titration assay relative to control; assay type: nucleic-acid assay; conditions: not given

| RFU | SMILES |
| --- | --- |
| 15 | Cc1c2cc(NC(=O)NCCNC(=O)Nc3ccc4c(c3)c(C)[n+](C)c3ccccc43)ccc2c2ccccc2[n+]1C.O=S(=O)([O-])O.O=S(=O)([O-])O |

tested on: Nucleic Acid; experiment: Binding affinity to poly dA-poly dT RNA in sodium cacodylate buffer at pH 7 by fluorescence titration assay; assay type: nucleic-acid assay; conditions: not given

| log Ks | SMILES |
| --- | --- |
| 5.3 | Cc1c2cc(NC(=O)NCCNC(=O)Nc3ccc4c(c3)c(C)[n+](C)c3ccccc43)ccc2c2ccccc2[n+]1C.O=S(=O)([O-])O.O=S(=O)([O-])O |

tested on: Nucleic Acid; experiment: Binding affinity to poly A-poly U RNA in sodium cacodylate buffer at pH 7 by fluorescence titration assay relative to control; assay type: nucleic-acid assay; conditions: not given

| RFU | SMILES |
| --- | --- |
| 9.2 | Cc1c2cc(NC(=O)NCCNC(=O)Nc3ccc4c(c3)c(C)[n+](C)c3ccccc43)ccc2c2ccccc2[n+]1C.O=S(=O)([O-])O.O=S(=O)([O-])O |

tested on: Nucleic Acid; experiment: Binding affinity to poly A-poly U RNA in sodium cacodylate buffer at pH 7 by fluorescence titration assay; assay type: nucleic-acid assay; conditions: not given

| log Ks | SMILES |
| --- | --- |
| 5.3 | Cc1c2cc(NC(=O)NCCNC(=O)Nc3ccc4c(c3)c(C)[n+](C)c3ccccc43)ccc2c2ccccc2[n+]1C.O=S(=O)([O-])O.O=S(=O)([O-])O |

tested on: Nucleic Acid; experiment: Binding affinity to poly G-poly C RNA in sodium cacodylate buffer at pH 7 by fluorescence titration assay relative to control; assay type: nucleic-acid assay; conditions: not given

| RFU | SMILES |
| --- | --- |
| 0.7 | Cc1c2cc(NC(=O)NCCNC(=O)Nc3ccc4c(c3)c(C)[n+](C)c3ccccc43)ccc2c2ccccc2[n+]1C.O=S(=O)([O-])O.O=S(=O)([O-])O |

tested on: Nucleic Acid; experiment: Binding affinity to poly dA-poly dT RNA in sodium cacodylate buffer at pH 7 by UV-v titration assay; assay type: nucleic-acid assay; conditions: not given

| log Ks | SMILES |
| --- | --- |
| 5 | Cc1c2cc(NC(=O)NCCNC(=O)Nc3ccc4c(c3)c(C)[n+](C)c3ccccc43)ccc2c2ccccc2[n+]1C.O=S(=O)([O-])O.O=S(=O)([O-])O |

tested on: Nucleic Acid; experiment: Binding affinity to […] assessed as change in melting temperature at compound to DNA molar ratio of 0.2 at pH 5 by thermal denaturation assay; assay type: nucleic-acid assay; conditions: not given

| ΔTm [°C] | SMILES |
| --- | --- |
| 9.4 | Cc1c2cc(NC(=O)NCCNC(=O)Nc3ccc4c(c3)c(C)[n+](C)c3ccccc43)ccc2c2ccccc2[n+]1C.O=S(=O)([O-])O.O=S(=O)([O-])O |

tested on: Nucleic Acid; experiment: Binding affinity to […] assessed as change in melting temperature at compound to DNA molar ratio of 0.3 at pH 5 by thermal denaturation assay; assay type: nucleic-acid assay; conditions: not given

| ΔTm [°C] | SMILES |
| --- | --- |
| 10.7 | Cc1c2cc(NC(=O)NCCNC(=O)Nc3ccc4c(c3)c(C)[n+](C)c3ccccc43)ccc2c2ccccc2[n+]1C.O=S(=O)([O-])O.O=S(=O)([O-])O |

tested on: Nucleic Acid; experiment: Binding affinity to poly A-poly U RNA assessed as change in melting temperature at compound to DNA molar ratio of 0.2 at pH 5 by thermal denaturation assay; assay type: nucleic-acid assay; conditions: not given

| ΔTm [°C] | SMILES |
| --- | --- |
| 1.5 | Cc1c2cc(NC(=O)NCCNC(=O)Nc3ccc4c(c3)c(C)[n+](C)c3ccccc43)ccc2c2ccccc2[n+]1C.O=S(=O)([O-])O.O=S(=O)([O-])O |

tested on: Calf thymus DNA; experiment: Binding affinity to calf thymus DNA assessed as change in melting temperature at compound to DNA molar ratio of 0.3 at pH 7 by thermal denaturation assay; assay type: nucleic-acid assay; conditions: Bos taurus

| ΔTm [°C] | SMILES |
| --- | --- |
| 3.8 | Cc1c2cc(NC(=O)NCCNC(=O)Nc3ccc4c(c3)c(C)[n+](C)c3ccccc43)ccc2c2ccccc2[n+]1C.O=S(=O)([O-])O.O=S(=O)([O-])O |

tested on: Nucleic Acid; experiment: Binding affinity to […] assessed as change in melting temperature at compound to DNA molar ratio of 0.2 at pH 7 by thermal denaturation assay; assay type: nucleic-acid assay; conditions: not given

| ΔTm [°C] | SMILES |
| --- | --- |
| 5.3 | Cc1c2cc(NC(=O)NCCNC(=O)Nc3ccc4c(c3)c(C)[n+](C)c3ccccc43)ccc2c2ccccc2[n+]1C.O=S(=O)([O-])O.O=S(=O)([O-])O |

tested on: Nucleic Acid; experiment: Binding affinity to […] assessed as change in melting temperature at compound to DNA molar ratio of 0.3 at pH 7 by thermal denaturation assay; assay type: nucleic-acid assay; conditions: not given

| ΔTm [°C] | SMILES |
| --- | --- |
| 6.1 | Cc1c2cc(NC(=O)NCCNC(=O)Nc3ccc4c(c3)c(C)[n+](C)c3ccccc43)ccc2c2ccccc2[n+]1C.O=S(=O)([O-])O.O=S(=O)([O-])O |
